# T1: recombinant TLR4/MD2 complex (UniProt Q9QUK6 26-638; Q9JHF9 19-160)
# T1 construct: Toll-like receptor 4 (TLR4) of the recombinant TLR4/MD2 complex; MD-2 (MD2, lymphocyte antigen 96) of the recombinant TLR4/MD2 complex; source: bought: R&D Systems
# T1 sequence (looked up) 1: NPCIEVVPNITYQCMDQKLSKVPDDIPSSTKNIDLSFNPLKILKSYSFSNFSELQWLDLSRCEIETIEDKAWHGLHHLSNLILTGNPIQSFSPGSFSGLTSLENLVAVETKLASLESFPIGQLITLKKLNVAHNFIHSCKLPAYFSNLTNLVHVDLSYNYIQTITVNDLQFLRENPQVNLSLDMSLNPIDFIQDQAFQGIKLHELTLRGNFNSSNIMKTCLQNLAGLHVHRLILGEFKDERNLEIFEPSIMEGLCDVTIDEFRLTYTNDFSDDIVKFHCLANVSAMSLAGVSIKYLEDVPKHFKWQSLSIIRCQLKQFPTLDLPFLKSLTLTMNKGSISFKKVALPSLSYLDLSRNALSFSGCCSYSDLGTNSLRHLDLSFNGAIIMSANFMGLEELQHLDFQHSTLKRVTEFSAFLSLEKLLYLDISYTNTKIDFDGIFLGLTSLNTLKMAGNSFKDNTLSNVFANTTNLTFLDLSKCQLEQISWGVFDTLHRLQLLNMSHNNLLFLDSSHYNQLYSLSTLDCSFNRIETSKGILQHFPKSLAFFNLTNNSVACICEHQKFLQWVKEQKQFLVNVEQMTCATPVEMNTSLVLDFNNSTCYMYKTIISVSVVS
# T1 sequence (looked up) 2: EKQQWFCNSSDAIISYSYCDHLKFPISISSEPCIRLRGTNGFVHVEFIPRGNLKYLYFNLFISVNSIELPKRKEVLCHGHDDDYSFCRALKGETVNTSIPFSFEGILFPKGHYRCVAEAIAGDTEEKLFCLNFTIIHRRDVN
# Assays:
# [1] = Ex vivo stability in plasma; type: in vitro ADME; conditions: rat plasma, in vitro, 37 °C, HPLC, log-linear regression; mean ± SEM of three biological replicates; read-out: t1/2, half-life in plasma (converted)
# Method: The samples were collected into pre-chilled tubes containing 1 mL of acidic acetone (hydrochloric acid/acetone/H2O, 1:40:5, by volume). Subsequently, the mixture was centrifuged at 2 × 10^4 rpm at 4 °C for 20 min. The precipitates were dried in vacuo. The dried precipitates were dissolved in 0.5 mL of 1 M acetic acid. The peptide analysis was carried out according to the protocol for the study of Tα1 using HPLC [51]. The half-lives of the target peptides were calculated by a logarithm-linear regression analysis of the peptide concentrations.
# [2] = tested on: peritoneal macrophages; test: Peritoneal macrophage phagocytosis (neutral red uptake) in CTX-immunosuppressed mice; type: in vivo, mouse; conditions: peritoneal macrophages of mice, OD 540 nm, CTX 80 mg/kg ip days 1-3, peptide 10 mg/kg ip days 4-10, control group 55.67%, n = 12
# Method: For the first 3 days, CTX (80 mg/kg mouse weight) was administered intraperitoneally once daily to establish the immunosuppressed animal model. From days 4 to 10 (7 days), peptides (10 mg/kg mouse weight) were administered intraperitoneally each day. The CTX group was only treated with CTX, and the control group was given sterile saline. The dose volume was 200 μL. Twenty-four hours after the last dose, the mice were killed and their tissues and blood collected for analysis.
# Peritoneal macrophages were aseptically obtained from the different groups of mice by peritoneal lavage with 5 mL ice-cold phosphate-buffered saline (PBS). The peritoneal macrophages were further isolated by incubating peritoneal exudate cells at 37 °C in a moist atmosphere (5% CO2, 95% air) for 3 h to allow the cells to adhere. The adherent cells were washed twice and collected as peritoneal macrophages.
# The phagocytic capacity of the peritoneal macrophages was measured by the neutral red uptake method [52]. […] The OD was measured using a microplate reader at 540 nm. The phagocytic rate was calculated in the following way:(4) hagocytic rate (%)=OD540(sample)/OD540(control) ×100% where OD540 (sample) is the absorbance at 540 nm by peptide-treated cells and OD540 (control) is the absorbance at 540 nm by the cells without peptides treated.
# [3] = target: T1, recombinant TLR4/MD2 complex; test: SPR; TLR4/MD2 immobilised by amino coupling on a ProteOn GLH chip (ProteOn XPR36); LTAa passed over at 0, 1.25, 2.5, 5 and 10 μM (methods print mM); 25 °C; PBS with 0.1% Tween 20 and 2% DMSO; 30 μL/min; global fit, homogeneous 1:1 model; conditions: both partners purified
molecule,measurement,setting,value
CC[C@H](C)[C@H](NC(=O)[C@H](CCCCN)NC(=O)[C@H](CCC(=O)O)NC(=O)[C@H](CCCCN)NC(=O)[C@H](CO)NC(=O)[C@H](CCCCN)NC(=O)[C@H](CCCNC(=N)N)NC(=O)[C@H](Cc1ccccc1)NC(=O)[C@H](Cc1ccccc1)NC(=O)[C@H](CC(=O)O)NC(=O)CNC(=O)[C@H](CC(C)C)NC(=O)[C@@H](N)CC(C)C)C(=O)NCC(=O)N[C@@H](CCCCN)C(=O)N[C@@H](CCC(=O)O)C(=O)N[C@@H](Cc1ccccc1)C(=O)N[C@@H](CCCCN)C(=O)N[C@@H](CCCNC(=N)N)C(=O)N[C@H](C(=O)N[C@H](C(=O)N[C@@H](CCC(N)=O)C(=O)N[C@@H](CCCNC(=N)N)C(=O)N[C@H](C(=O)N[C@@H](CCCCN)C(=O)N[C@@H](CC(=O)O)C(=O)N[C@@H](Cc1ccccc1)C(=O)N[C@@H](CC(C)C)C(=O)N[C@@H](CCCNC(=N)N)C(=O)N[C@@H](CC(N)=O)C(=O)N[C@@H](CC(C)C)C(=O)N[C@H](C(=O)N1CCC[C@H]1C(=O)N[C@@H](CCCNC(=N)N)C(=O)N[C@H](C(=O)N[C@@H](CCC(=O)O)C(=O)N[C@@H](CO)C(=O)O)[C@@H](C)O)C(C)C)[C@@H](C)CC)C(C)C)[C@@H](C)CC [LL-37],half-life,[1],186 ± 52.2 min
"O=P1(N(CCCl)CCCl)NCCCO1 (stereo not drawn) [CTX, cyclophosphamide, reference compound]",macrophage phagocytic rate,[2],31.93%
"IGKEFKRIVQRIKDFLRNLVPRTEKEKKEVVE (LL-37, human cationic host-defense peptide, residues 13-36; Thymosin alpha-1 (Tα1), residues 17-24 (Tα1a); (32 residues); source: synthetic peptide (solid-phase, KangLong Biochemistry; purity >95%)) [LL-37-Tα1a hybrid peptide (LTAa)]",Kd,[3],0.0491 nM

# — PMC6940896, “Development of a Highly Efficient Hybrid Peptide That Increases Immunomodulatory Activity Via the TLR4-Mediated Nuclear Factor-κB Signaling Pathway” (International Journal of Molecular Sciences, 2019)
